Data set [1] deals with T1, TS (Homo sapiens, UniProt P04818).
T1 construct: activity of TS in the intact cells; endogenous in cells; host or cells: CCRF-CEM human lymphoblast cells
The data set can be described thus: TS activity in intact CCRF-CEM human lymphoblast cells by tritiated water release from [5-3H]deoxyuridine. The class given is cell-based. Conditions: for tritiated water production: 48 μM; for remaining activity at 48 µM: read-out: tritiated water production, % of control. The protocol: (§1) The unnatural diastereomer, (6S)-CH2 FH4 prepared by DEAE-column,potassium bicarbonate separation from the natural diasteromer as described in Example 8, was dissolved in 0.2M Tris-HCl buffer, pH 7.0, containing sodium ascorbate (100 mM) and 2-mercaptoethanol. This preparation was from the same lot of material described in Example 8. As noted in the footnote of Table VII, in the absence of supplemental formaldehyde, the yield of dextrancharcoal isolated complex was 38.5% of the value for the natural (6R)-CH2 FH4 (with added 6 mM formaldehyde).
Separate cultures tubes at 37° C. with 1 ml each of CCRF-CEM human lymphoblast cells, 4.6×10^5 cells/ml, in exponential log phase growth were exposed to the unnatural diastereomer, (6R)-FH4 (made up from (6S)-CH2 FH4, 1.56 mM stock solution, with 32 microliters added to each ml of cells), 48 μM final concentration. Cells were incubated for 30, 60, and 120 minutes of drug exposure, prior to addition of [5-^3 H]deoxyuridine (150,000 CPM of approx. 18-20 Ci/mmo. spec. act.) and 10 min. 37° C. incubation prior to 3% charcoal addition for isolation of tritiated water. The amount of tritiated water is proportional to the activity of TS in the intact cells (N. Kundu et al., J. Med. Chem. 33:1975-79 (1990)).

The next data set concerns the target T2, L. casei TS-[3H]FdUMP (Lacticaseibacillus casei, UniProt P00469).
T2 sequence (P00469 1-316): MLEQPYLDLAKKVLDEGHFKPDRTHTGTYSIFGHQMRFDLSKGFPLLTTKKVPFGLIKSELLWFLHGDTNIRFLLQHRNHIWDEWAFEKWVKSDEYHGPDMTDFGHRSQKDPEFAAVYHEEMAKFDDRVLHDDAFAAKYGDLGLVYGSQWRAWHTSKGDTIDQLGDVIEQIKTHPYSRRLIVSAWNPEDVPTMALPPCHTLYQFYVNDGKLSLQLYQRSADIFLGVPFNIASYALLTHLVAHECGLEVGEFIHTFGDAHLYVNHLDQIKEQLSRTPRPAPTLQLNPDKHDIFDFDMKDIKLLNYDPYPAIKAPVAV
The data set can be described thus: TS-[3H]FdUMP-folate ternary complex binding assay. As to the method:
The CH2 FH4 was prepared as the racemic (6R, S) material from (6R, S)-FH4 and excess formaldehyde, and DEAE-column isolation as described in FIG. 1. This preparation was essentially free of free formaldehyde based on colorimetric assay of bulk material (Nash, Biochem. J. 55:416-21 (1953)).
At all concentrations (total assays volume 150 μl ), excess formaldeyde was required to obtain maximal binding (which was still only 19.3% of stoichiometric binding). A notable effect was the increasing need for formaldehyde addition with increasing dilution, to obtain maximal CH2 FH4 assay recovery.
TS[^3 H]FdUMP-folate ternary complex formation without formaldehyde
addition was 38.5% of the value for the natural (6R)CH2 FH4 wit
6 mM formaldehyde added. (About 1 pmole of parent CH2 FH4 was
^b Only 11.8 ± 7.9% of maximal L. casei TS[^3 H]FdUMP-folate
ternary complex formation (using 6 mM formaldehyde concentration) which i
as §1

The target in another data set is T3, L. casei TS (Lacticaseibacillus casei, UniProt P00469).
T3 construct: spectrophotometric cofactor assay with dUMP
T3 sequence (P00469 1-316): T2 sequence (P00469 1-316)
As to the kind of experiment: L. casei/dUMP spectrophotometric cofactor assay. The class given is biochemical. The protocol:
CH2 FH4 as the equal mixture of diastereomers (optical isomers or enantiomers at the C6-position; both diastereomers are of the natural L-configuration at the alpha-carbon position of the glutamate moiety) was prepared from (6R,S)-tetrahydrofolic acid, commercially available from Sigma, in the examples described below. The method of synthesis has been described previously (C. P. Spears and B. Gustavsson, Adv. Exp. Med. Biol. 244:98-104 (1988)). To (6R, S)-tetrahydrofolate (6R, S-FH4) powder, (100 mg) is added 360 μL of 1.0M Na Ascorbate, pH 6.5, 68 μL of 37% (w/w) formaldehyde (CH2 O), and 16 mL phosphate buffer, pH 7.0. A 10-min room temperature incubation allows completion of formation of (6R,S)-CH2 FH4. This material is applied to a DEAE-cellulose column using a modification of a well-known procedure (Kaufman et al., J. Biol. Chem. 238:1498-1500 (1963)). A step elution with NH4 HCO3 buffers of increasing concentration and pH, leads to isolation of CH2 FH4 in the last pooled fraction. […] CH2 FH4, prepared with [^14 C]CH2 O as described previously (Moran et al. Proc. Natl. Acad. Sci. USA 76:1456-60, 1979). […]

The subject of data set [2] is transplanted colon cancer. The data set can be described thus: Comparison of natural and unnatural CH2 FH4 diastereomers in rats bearing transplanted colon cancer. The class given is in vivo, rat. Conditions: 15 mg/kg, Day 17, no fluorinated pyrimidine. From the text:
A study has been completed, for comparison of natural (6R)-CH2 FH4 and unnatural (6S)-CH2 FH4 diastereomers. The preparation of the two forms was done as described by Kisliuk, et al., Cancer Treat. Rep. 61:647-50 (1977), using DEAE-cellulose column chromatography, with elution by potassium bicarbonate buffer. The two separate major peaks were individually pooled, lyophilized to dryness, and used for injection. As in the original detailed description of the method of Kisliuk, et al. (Biochem. 20:929-934), the methylene content was substoichiometric with tetrahydrofolate (FH4). That is, methylene units were present in apparently lower concentration than FH4 concentrations.
Rats bearing the transplanted colon cancer, as described in Example 4 and in Carlsson, et al., Anticancer. Res. 10:813-816, 1991, were treated with either the (6R)-CH2 FH4 or the (6S)-CH2 FH4, formulated and injected according to the methods described in Table IV, except that the injected amounts were 15 mg/kg per dose.
At Day 17, the rats were sacrificed, and the tumors were measured for both volume end weight. Volumes were calculated by the equation for an ellipsoid in revolution, V=(4/3)πab^2 were a=the long diameter/2 and b=the perpendicular short diameter/2.
The filled circles are the weights and volumes of tumors of rats treated with the unnatural (6S)-CH2 FH4 diastereomer (mostly (6R)-FH4 material in dilute solution and blood); the triangles are results for the natural (6R)-CH2 FH4 (mostly (6S)-FH4); and the open circles, control non-treated tumors. It is emphasized here that no fluorinated pyrimidine was used, just the folate injections.

Data set [3] deals with T4, thymidylate synthase (TS) (Mus musculus, UniProt P07607).
T4 construct: [6-3H]FdUMP titration of free TS
T4 sequence (P07607 whole entry): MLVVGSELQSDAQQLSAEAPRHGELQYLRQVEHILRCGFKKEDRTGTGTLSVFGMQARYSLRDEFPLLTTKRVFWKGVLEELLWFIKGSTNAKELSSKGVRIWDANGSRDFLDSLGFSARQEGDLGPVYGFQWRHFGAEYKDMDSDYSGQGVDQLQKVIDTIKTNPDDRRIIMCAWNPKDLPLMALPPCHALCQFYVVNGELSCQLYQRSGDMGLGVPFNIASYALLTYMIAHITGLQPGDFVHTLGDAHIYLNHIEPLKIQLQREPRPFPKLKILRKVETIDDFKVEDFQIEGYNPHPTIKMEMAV
The data set can be described thus: TS inhibition in murine colon carcinoma tumor CA51 (Tumor 51) after i.p. 5-FU with or without CH2 FH4. The format is in vivo. Particulars: for Free TS / inhibition at 80 mg/kg: 5-FU 80 mg/kg i.p.; for Free TS: CH2 FH4 27 mg/kg in (6R), not corrected; for inhibition at 80 mg/kg: mouse, ip, baseline total TS 10.00 pmol/g. As to the method:
(6R, S)-CH2 FH4 was prepared by the DEAE-cellulose column procedure, described above, using step-elution of the material as previously reported for purification of nucleotides (Moran et al., Proc. Natl. Aca. Sci. USA 76:1456-60 (1979)). […] Because of the high formaldehyde, this solution was over 2 mM in CH2 FH4, with less FH4 present as the solution isomer. After 20 min at room temperature, this solution was applied to a 1×3-cm DEAE-cellulose column; in the last step, the 500 mM NH4HCO3 (pH 8.0) fraction (30 mL) was pooled, lyophilized to dryness, and stored under vacuum in glass ampoules. This fraction contains both diastereomers of CH2 FH4.
On the day of reconstituting the above CH2 FH4, mice bearing subcutaneous murine colon carcinoma Tumor 51 were administered intraperitoneal (i.p.) 5-FU, with or without concomitant i.p. CH2 FH4 by separate injection. The 5-FU was given at a dose of 1.6 mg per mouse, about 80 mg/kg. The CH2 FH4 was given at a dose of 0.5 mL of the 2.4 mM material ([…]), above. The in vivo methodologies were essentially as had previously been described (C. P. Spears, et al., Cancer Res. 42:450-56 (1982)). […] The levels of apparent free TS in tumors of mice receiving CH2 FH4 concomitant with 5-FU were at, or below, that level due to exchange-labeling of endogenous TS-FdUMP-folate ternary complexes in the cytosolic extracts. […] This is exactly the qualitative difference between sensitivity and resistance to 5-FU previously established (see Spears et al., Cancer Res. 42:450-52 (1982)).

The subject of data set [4] is TS. The data set can be described thus: TS assay in liver tumors of rats bearing transplanted hepatic colonic carcinoma. The format is in vivo, rat. Conditions: 30 mg/kg each; 24 h after last injection; control 18.96. An excerpt: (§2) The present inventors have considerable experience with this model, and the antitumor effects of 5-FU shown are typical results, as are the TS and folate assays of control and 5-FU-only-treated rats. […] In fact, the "free TS" levels in the (6R,S)-FH4 -only-treated rats were the lowest of all arms of the study.
(§3) ^b Inoculation of 1 × 10^6 viable colon tumor
(§4) (nitrosoguanidineinduced) cells under the liver capsule on Day 1 (Carlsso
(§5) et al., Anticancer Res. 10:813-16 (1990)). Animals sacrificed on Day 17
(§6) for excision of single liver tumor nodules for pharmacodynamic studies.
(§7) ^d Assays done as described (Spears et al. Adv. Exp. Med. Biol.

The target in data set [5] is T4, thymidylate synthase (TS). Conditions: murine colon cancer; cited from earlier work.
For data set [6], the system named is 5,10-CH2 FH4 and FH4 levels in liver tumor. The data set can be described thus: Folate assay (5,10-CH2 FH4 and FH4) in liver tumors of rats. Particulars: 30 mg/kg each, 24 h after last injection. The class given is in vivo, rat.
Source text: as §2, §3, §4, §5, §6, §7

Data set [7] has as its system hepatic colonic carcinoma. As to the kind of experiment: Tumor weight in rats bearing transplanted hepatic colonic carcinoma. The class given is in vivo, rat. Particulars: Day 17 after transplantation; 30 mg/kg each; average of 3 rats; control 5.84.
Source text: as §2
>94% by HPLC). The (6 R,S)FH 4 was weighed, dissolved in normal
saline, and injected daily by tail vein administration using the airfree
Protector device to prevent oxidative destruction of the folate.
as §3, §4, §5, §6

For data set [8] the following is noted: humans; cited from earlier work.

Where two headings read alike, the source gives them in different places.

T1 sequence (P04818 whole entry): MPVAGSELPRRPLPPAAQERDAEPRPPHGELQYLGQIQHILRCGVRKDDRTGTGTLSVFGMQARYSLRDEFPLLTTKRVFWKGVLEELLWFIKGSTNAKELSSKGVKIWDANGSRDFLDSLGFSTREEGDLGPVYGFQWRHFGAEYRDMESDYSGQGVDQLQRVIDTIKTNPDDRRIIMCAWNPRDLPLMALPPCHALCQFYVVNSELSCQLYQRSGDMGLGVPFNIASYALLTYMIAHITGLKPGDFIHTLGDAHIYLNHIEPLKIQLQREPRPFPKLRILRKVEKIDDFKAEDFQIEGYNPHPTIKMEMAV

`Nc1nc2c(c(=O)[nH]1)N1CN(c3ccc(C(=O)N[C@@H](CCC(=O)O)C(=O)O)cc3)C[C@@H]1CN2` [(6S)-CH2 FH4]: the tritiated water production on TS [1] (30 min exposure, control 2566) stood at 2004 CPM; at TS [1] (60 min exposure, control 2662) it was 1750 CPM; on TS [1] (120 min exposure, control 2902), 1146 CPM. In addition, the remaining activity at 48 µM on TS [1] (CCRF-CEM, 30 min) was found to be 78.1%; on TS [1] (CCRF-CEM, 60 min) it was 65.7%; at TS [1] (CCRF-CEM, 120 min) it was 39.5%. For the same compound, on TS [1] (CCRF-CEM, two hour time point), the inhibition (as a rule, how much of the control response was suppressed) at 48 µM is 60.5%. The “TS-[3H]FdUMP-ternary complex yield, % of value for natural (6R)-CH2 FH4 with 6 mM formaldehyde” value at L. casei TS-[3H]FdUMP (in the presence of formaldehyde) turned out to be 23.3%. Further, the “TS-[3H]FdUMP-folate ternary complex formation, % of value for natural (6R)-CH2 FH4 with 6 mM formaldehyde” value on L. casei TS-[3H]FdUMP (without formaldehyde addition) is 38.5%. Besides, at L. casei TS, the cofactor activity result is reported as “No cofactor activity”. Moreover, the “Tumor volume ± SE” value in data set [2] (control 7.81) worked out at 0.74. The “Tumor weight ± SE” value in data set [2] (control 7.93) was found to be 2.14.

Turning to `O=c1[nH]cc(F)c(=O)[nH]1` [5-FU, 5-Fluorouracil], the “Free TS” value in data set [3] (1 h) is given as 1.67 pmol/g; in [3] (3 h) it was 1.00 pmol/g; in [3] (6 h), 1.27 pmol/g. Moreover, in data set [3] (minimal correction factor of 5%, average / all tumors), the “TS inhibition, corrected” value is reported as 92%. The inhibition at 80 mg/kg in [3] (read-out: % Inhibition (TS), 1 h) amounted to 83.3%; in data set [3] (read-out: % Inhibition (TS), 3 h), 90%; in data set [3] (read-out: % Inhibition (TS), 6 h) it was 87.3%. This compound also returned a TS in the data set on TS [4] of 9.03 p mole/g. Moreover, the “TS inhibition as therapeutic mechanism” value in data set [5] is “complete inhibition of TS”. Moreover, the “5,10-CH2 FH4” value in data set [6] (control 0.69) was determined as 4.11 nmol/g. This compound showed an FH4 in [6] (control 1.18) of 2.39 nmol/g. For the same compound, in data set [7], the Tumor weight is recorded as 1.03 g.

Consider `C=O` [CH2 O, formaldehyde], for which the “oral LDLo (lowest lethal dose)” value in data set [8] is 36 mg/kg.

The values above are taken from patent publication US5376658A, “5,10-methylene-tetrahydrofolate as a modulator of a chemotherapeutic agent” (priority 1993, dated 1994).
